In patent US20250325684A1, “POTENT ANTI-CANCER CYCLOTIDES” (University of Southern California, priority 2022, published 2025):
Bridge positions count the residues as written; N and C are the ends. Peptide text beside a SMILES is read from it.

How the values were obtained:
SKOV 3 = assay: MTT cell viability, SKOV 3 ovarian cells; type: cell-based, human; details: p53 Mutant
Procedure: (§1) Cell viability assay in several human cancer cell lines (See Tables 1 to 10). Cell lines were cultured in RPMI 1640 (or recommended medium when indicated) medium supplemented with 10% fetal calf serum, penicillin (50 IU/mL) and streptomycin ([…]) at 37° C. in 5% CO2. Cell viability studies was carried using the MTT (3-(4,5-dimethylthiazol-2-yl)-2,5-diphenyltetrazolium bromide) assay as previously described (31). Briefly, ≈2×10^3 CRC cells were be seeded in 96-well microtiter plates in 100 μL RPMI 1640 in the presence of 10% calf serum. After 24 h incubation the cells were washed with PBS and treated with 30 μL/well of PBS or RPMI 1640 (or recommended) media containing cyclotides MCo-52, MCoTI-I (used as negative control), nutlin-3a (used as positive control) or MI-77301 (used as positive control for p53-mutated or p53-null cells) at the indicated doses for 1 h at 37° C. in 5% CO2. After 1 h, 210 μL/well of full complemented media was added, the cells were grown for 48 h and then treated with 20 μL of a solution of MTT (5 mg/mL) for 2 h. The medium was discarded and DMSO ([…]) was added to each well and incubated with gentle shaking for 20 min at room temperature. The absorbance at 595 nm of the solution is analyzed using a Tecan Genios Multifunctional Microplate Reader (Tecan System Inc) and the background at 670 nm subtracted. RNA-Seq analysis was performed using state-of-the-art bioinformatics tools. Briefly, raw RNA-Seq reads were mapped to human genome (hg38) using STAR aligner (v2.7.3a). Gencode Release 36 reference was used for annotation. Transcript and gene expression levels were quantified using the IsoEM (37) with default parameters. Counts per million (CPM) method is used for normalization. Differential expression was done using DESeq2 with default parameters. Genes involved in different biological pathways (human) were searched from Geneontology (http://geneontology.org/). Bioinformatics results can be validated by using Partek Flow (v10.0.21.0912), a bioinformatics pipeline developed by Zymo Research (https://www.zymoresearch.com/).
(§2) Tables 1 through 10 show in vitro activity of cyclotide MCo-52-2-cTAT against different human cancer cell lines, some with null-, mutated, or wildtype p53 phenotypes. Cell viability was evaluated using the MTT assay as described above.

BxPC-3 = assay: MTT cell viability, BxPC-3 cells; type: cell-based, human; details: BxPC-3 pancreatic ductal adenocarcinoma, p53 Mutant
Procedure: as §1, with “After 24 h incubation the cells were washed with PBS and treated with 30 μL/well of PBS or RPMI 1640 (or recommended) media containing cyclotides MCo-52, MCoTI-I (used as negative control), nutlin-3a (used as positive control) or MI-77301 (used as positive control for p53-mutated or p53-null cells) at the indicated doses for 1 h at 37° C. in 5% CO2.” left out
(§3) Cell viability was evaluated using the MTT assay as described above.

LNCaP = assay: MTT cell viability, LNCaP cells; type: cell-based; details: LNCaP prostate carcinoma, p53 WT, read-out: Cell viability, Human Prostate Cancer Cells
Procedure: as §1, §2

MIA PaCa-2 = assay: MTT cell viability, MIA PaCa-2 cells; type: cell-based, human; details: MIA PaCa-2 pancreatic ductal adenocarcinoma, p53 Mutant
Procedure: as §1, with “After 24 h incubation the cells were washed with PBS and treated with 30 μL/well of PBS or RPMI 1640 (or recommended) media containing cyclotides MCo-52, MCoTI-I (used as negative control), nutlin-3a (used as positive control) or MI-77301 (used as positive control for p53-mutated or p53-null cells) at the indicated doses for 1 h at 37° C. in 5% CO2.” left out
as §3

DU145 = assay: MTT cell viability, DU145 cells; type: cell-based; details: DU145 prostate carcinoma, p53 Mutant, read-out: Cell viability, Human Prostate Cancer Cells
Procedure: as §1, §2

Capan-1 = assay: MTT cell viability, Capan-1 cells; type: cell-based, human; details: Capan-1 pancreatic ductal adenocarcinoma, p53 Mutant
Procedure: as §1, with “After 24 h incubation the cells were washed with PBS and treated with 30 μL/well of PBS or RPMI 1640 (or recommended) media containing cyclotides MCo-52, MCoTI-I (used as negative control), nutlin-3a (used as positive control) or MI-77301 (used as positive control for p53-mutated or p53-null cells) at the indicated doses for 1 h at 37° C. in 5% CO2.” left out
as §3

SW1990 = assay: MTT cell viability, SW1990 cells; type: cell-based, human; details: SW1990 pancreatic adenocarcinoma, p53 Mutant (Deletion)
Procedure: as §1, with “After 24 h incubation the cells were washed with PBS and treated with 30 μL/well of PBS or RPMI 1640 (or recommended) media containing cyclotides MCo-52, MCoTI-I (used as negative control), nutlin-3a (used as positive control) or MI-77301 (used as positive control for p53-mutated or p53-null cells) at the indicated doses for 1 h at 37° C. in 5% CO2.” left out
as §3

A2780 = assay: MTT cell viability, A2780 ovarian cells; type: cell-based, human; details: p53 WT
Procedure: as §1, §2

HPAF-II = assay: MTT cell viability, HPAF-II cells; type: cell-based, human; details: HPAF-II pancreatic ductal adenocarcinoma, p53 Mutant
Procedure: as §1, with “After 24 h incubation the cells were washed with PBS and treated with 30 μL/well of PBS or RPMI 1640 (or recommended) media containing cyclotides MCo-52, MCoTI-I (used as negative control), nutlin-3a (used as positive control) or MI-77301 (used as positive control for p53-mutated or p53-null cells) at the indicated doses for 1 h at 37° C. in 5% CO2.” left out
as §3

CFPAC-1 = assay: MTT cell viability, CFPAC-1 cells; type: cell-based, human; details: CFPAC-1 pancreatic ductal adenocarcinoma, p53 Mutant
Procedure: as §1, with “After 24 h incubation the cells were washed with PBS and treated with 30 μL/well of PBS or RPMI 1640 (or recommended) media containing cyclotides MCo-52, MCoTI-I (used as negative control), nutlin-3a (used as positive control) or MI-77301 (used as positive control for p53-mutated or p53-null cells) at the indicated doses for 1 h at 37° C. in 5% CO2.” left out
as §3

ES-2 = assay: MTT cell viability, ES-2 ovarian cells; type: cell-based, human; details: p53 Mutant
Procedure: as §1, §2

AsPC-1 = assay: MTT cell viability, AsPC-1 cells; type: cell-based, human; details: AsPC-1 pancreatic ductal adenocarcinoma, p53 Mutant
Procedure: as §1, with “After 24 h incubation the cells were washed with PBS and treated with 30 μL/well of PBS or RPMI 1640 (or recommended) media containing cyclotides MCo-52, MCoTI-I (used as negative control), nutlin-3a (used as positive control) or MI-77301 (used as positive control for p53-mutated or p53-null cells) at the indicated doses for 1 h at 37° C. in 5% CO2.” left out
as §3

SW626 = assay: MTT cell viability, SW626 cells; type: cell-based, human; details: SW626 ovarian cells, p53 Mutant; MTT (Table 7); read-out: Cell Viability Assay
Procedure: as §1, with “After 24 h incubation the cells were washed with PBS and treated with 30 μL/well of PBS or RPMI 1640 (or recommended) media containing cyclotides MCo-52, MCoTI-I (used as negative control), nutlin-3a (used as positive control) or MI-77301 (used as positive control for p53-mutated or p53-null cells) at the indicated doses for 1 h at 37° C. in 5% CO2.” left out
as §3

PC-3 = assay: MTT cell viability, PC-3 cells; type: cell-based; details: PC-3 prostate carcinoma, p53 Mutant, read-out: Cell viability, Human Prostate Cancer Cells
Procedure: as §1, §2

NIHOVCAR3 = assay: MTT cell viability, NIHOVCAR3 ovarian cells; type: cell-based, human; details: p53 Mutant
Procedure: as §1, §2

PANC-1 = assay: MTT cell viability, PANC-1 cells; type: cell-based, human; details: PANC-1 pancreatic ductal adenocarcinoma, p53 Mutant
Procedure: as §1, with “After 24 h incubation the cells were washed with PBS and treated with 30 μL/well of PBS or RPMI 1640 (or recommended) media containing cyclotides MCo-52, MCoTI-I (used as negative control), nutlin-3a (used as positive control) or MI-77301 (used as positive control for p53-mutated or p53-null cells) at the indicated doses for 1 h at 37° C. in 5% CO2.” left out
as §3

Measured: EC50

CC[C@H](C)[C@@H]1NC(=O)[C@@H]2CSSC[C@@H]3NC(=O)[C@H](C(C)C)NC(=O)CNC(=O)CNC(=O)[C@H](CC(=O)O)NC(=O)[C@H](CO)NC(=O)CNC(=O)[C@H](CO)NC(=O)CNC(=O)[C@@H]4CSSC[C@H](NC(=O)[C@H](CC(=O)O)NC(=O)[C@H](CO)NC(=O)[C@H](CC(=O)O)NC(=O)[C@H](CCCNC(=N)N)NC(=O)[C@H](CCCNC(=N)N)NC(=O)[C@H](CSSC[C@H](NC1=O)C(=O)N[C@@H](CCCNC(=N)N)C(=O)N[C@@H](Cc1c[nH]cn1)C(=O)N[C@@H](CC(=O)O)C(=O)N[C@@H](CO)C(=O)N[C@@H](Cc1ccc(O)cc1)C(=O)N4)NC(=O)[C@H](CC(C)C)NC(=O)[C@H](CC(C)C)NC(=O)[C@H](Cc1ccc(O)cc1)NC(=O)[C@H](CC(C)C)NC(=O)[C@H](CC(N)=O)NC(=O)[C@@H]1CCCN1C3=O)C(=O)N1CCC[C@H]1C(=O)NCC(=O)N[C@@H](C)C(=O)N2 [Cyclotide 52-2] (cyclo(ACICRHDSYCGSGSDGGVCPNLYLLCRRDSDCPG); disulfide 2-19, 4-26, 10-32)
> 100 µM: all assays above
